Source: PubChem BioAssay (NCI)
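Growth conditions: 96-well plates. Treatment: test compound, 48 hours, 5 concentrations. Analysis: linear interpolation between bracketing concentrations; unreached endpoints set to highest concentration. TGI denotes the concentration required for complete inhibition of growth.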

Columns and labels:
Experiment in all cases: NCI tumour cell line growth inhibition, 48 h
[1] = tested on: HL-60(TB) leukemia
[2] = tested on: BT-549 breast
[3] = tested on: T-47D breast
[4] = tested on: NCI/ADR-RES ovarian
[5] = tested on: NCI-H522 lung
[6] = tested on: UACC-62 melanoma
[7] = tested on: HT29 colon
[8] = tested on: MCF7 breast
[9] = tested on: DU-145 prostate
[10] = tested on: ACHN renal
[11] = tested on: K-562 leukemia
[12] = tested on: HOP-92 NSCLC
[13] = tested on: SNB-19 CNS
[14] = tested on: M14 melanoma
[15] = tested on: IGROV1 ovarian
[16] = tested on: MDA-MB-231 breast
[17] = tested on: HCT-116 colon
[18] = tested on: HOP-62 NSCLC
[19] = tested on: EKVX NSCLC
[20] = tested on: CAKI-1 renal
[21] = tested on: HCT-15 colon
[22] = tested on: MDA-N
[23] = tested on: OVCAR-5 ovarian
[24] = tested on: 786-0 renal
[25] = tested on: LOX IMVI melanoma
[26] = tested on: CCRF-CEM leukemia
[27] = tested on: SK-MEL-5 melanoma
[28] = tested on: SN12C renal
[29] = tested on: SF-268 CNS
[30] = tested on: COLO 205 colon
[31] = tested on: NCI-H460 lung
[32] = tested on: HCC-2998 colon
[33] = tested on: U251 CNS
[34] = tested on: NCI-H226 lung
[35] = tested on: RPMI-8226 leukemia
[36] = tested on: HS 578T breast
[37] = tested on: TK-10 renal
[38] = tested on: SF-295 CNS
[39] = tested on: MDA-MB-435
[40] = tested on: PC-3 prostate
[41] = tested on: UO-31 renal
[42] = tested on: A498 renal
[43] = tested on: MOLT-4 leukemia
[44] = tested on: OVCAR-3 ovarian
[45] = tested on: SW-620 colon
[46] = tested on: NCI-H23 lung
[47] = tested on: RXF 393 renal
[48] = tested on: SK-OV-3 ovarian
[49] = tested on: SR leukemia
[50] = tested on: MALME-3M melanoma
[51] = tested on: OVCAR-8 ovarian
[52] = tested on: OVCAR-4 ovarian
[53] = tested on: SNB-75 CNS
[54] = tested on: KM12 colon
[55] = tested on: A549 NSCLC
[56] = tested on: SK-MEL-28 melanoma
[57] = tested on: SK-MEL-2 melanoma
[58] = tested on: SF-539 CNS
[59] = tested on: UACC-257 melanoma

Measured: TGI

CCOC(=O)C1CCCC1S(=O)(=O)c1ccc(C)cc1 (centres undefined)
not listed: [57] | [58] | [59]
> 100 µM: all other assays above

O=C(O)CCc1nc(-c2ccccc2)c(-c2ccccc2)o1
not listed: [29] | [32] | [41]
> 100 µM: all other assays above

CCOC(=O)c1ccc2c(=O)n3c(C(=O)OCC)ccc3c(=O)n12
not listed: [12] | [58]
> 100 µM: all other assays above
